Assay results reported in patent US20100233229A1, “IN-VIVO INDWELLING DEVICE” (Terumo Kabushiki Kaisha, priority 2007, published 2010).

Test: ultra-micro hardness under load (HTL) of coating layer, JIS Z2255, dynamic ultra micro hardness tester
Assay type: physicochemical
Details: coating layer on SUS disc; 50 mg sirolimus, 50 mg PLGA, 10 mg (20% based on PLGA) of the triglyceride; about 30 μm
Experimental: When the medium-chain fatty acid triglyceride is added to the coating layer (for example, the layer formed on at least a part of a surface of a stent main body and formed from the composition containing the biologically active agent, the biodegradable polymer, and the medium-chain fatty acid triglyceride) formed on a surface of the in-vivo indwelling device, for example, on a surface of a stent, flexibility can be imparted to the coating layer. In addition, as a method for quantitatively measuring the flexibility of a very thin layer such as the above-mentioned coating layer, measurement of ultra-micro hardness under load (also called “HTL,” “dynamic hardness” and “universal hardness”) by use of an ultra-micro hardness tester can be used. In this method, as described in JIS Z2255, hardness of a solid material is measured as a resistance to a triangular pyramid diamond indenter when the indenter is pressed against the surface of a specimen, and it is possible by the method to measure hardness in a very minute region of a solid material having a thickness of not less than 10 μm. In order that such a damage as cracking of the coating layer or exfoliation of the coating layer from the stent main body is mitigated or not generated when the stent is expanded, the ultra-micro hardness under load can be 15 or below, more preferably 12 or below, and particularly preferably 10 or below. The present inventors have made earnest search for a substance which causes the ultra-micro hardness under load of the coating layer to be, for example, 15 or below and which is high in safety, among a large number of additives. As a result of the search, they found exemplary medium-chain fatty acid triglycerides.
The circular discs provided thereon with the respective coating layers were sterilized by electron beams, and ultra-micro hardness under load (HTL) of the coating layers was measured according to JIS Z2255 by use of a dynamic ultra micro hardness tester produced by Shimadzu Corporation. A lower value of HTL indicates a higher flexibility of the coating layer.
The stent was crimped onto a balloon of a delivery catheter, and sterilized by electron beams. The ultra-micro hardness under load (HTL) of the coating layer after sterilization was measured according to JIS Z2255 by use of a dynamic ultra micro hardness tester produced by Shimadzu Corporation.

| SMILES | ultra-micro hardness under load (HTL) |
| --- | --- |
| CC(=O)OCC(COC(C)=O)OC(C)=O [Triacetin] | 20 |
| CCCC(=O)OCC(COC(=O)CCC)OC(=O)CCC [Tributyrin] | 19 |
| CCCCCCCCCC(=O)OCC(COC(=O)CCCCCCCCC)OC(=O)CCCCCCCCC [Tricaprin] | 9 |
| CCCCCC(=O)OCC(COC(=O)CCCCC)OC(=O)CCCCC [Tricaproin] | 15 |
| CCCCCCCC(=O)OCC(COC(=O)CCCCCCC)OC(=O)CCCCCCC [Tricaprylin] | 10 |
| CCCCCCCCCCCC(=O)OCC(COC(=O)CCCCCCCCCCC)OC(=O)CCCCCCCCCCC [Trilaurin] | 15 |
| CCCCCCCCCCCCCC(=O)OCC(COC(=O)CCCCCCCCCCCCC)OC(=O)CCCCCCCCCCCCC [Trimyristin] | 20 |
